For orientation: IC50 means the concentration that inhibits the measured activity by half.

These results are taken from ChEMBL document CHEMBL3351936, “Novel 25-hydroxyprotopanaxadiol derivatives incorporating chloroacetyl chloride and their anti-tumor evaluation” (Bioorg Med Chem Lett, 2014).

One assay concerns LoVo. The assay can be described thus: Antiproliferative activity against human LoVo cells assessed as cell-growth inhibition after 48 hrs by MTT assay. The assay is classed as functional, cell-based. In general terms: Tetrazolium assays rely on reduction of a dye to a coloured formazan, in cell work by metabolically active cells.
The nature of assay [1]: Antiproliferative activity against human U87 cells assessed as cell-growth inhibition after 48 hrs by MTT assay. The assay is classed as functional, cell-based, U-87MG ATCC. The settings on record: U-87 MG.
Assay [2] in a line: Antiproliferative activity against human HCT116 cells assessed as cell-growth inhibition after 48 hrs by MTT assay. The assay is classed as functional, cell-based. The settings on record: HCT-116, 48 h.
Assay [3] in a line: Antiproliferative activity against human BGC823 cells assessed as cell-growth inhibition after 48 hrs by MTT assay. The assay is classed as functional, cell-based. The settings on record: BGC-823, 48 h.
The subject of the next assay is HeLa. The assay can be described thus: Antiproliferative activity against human HeLa cells assessed as cell-growth inhibition after 48 hrs by MTT assay. It is filed as functional, cell-based.
In a further assay the test system is MCF7. Kind of assay: Antiproliferative activity against human MCF7 cells assessed as cell-growth inhibition after 48 hrs by MTT assay. The assay is classed as functional, cell-based. To be noted: MCF7, 48 h.

Structures are written as SMILES.

Turning to `CC(C)(O)CCC[C@@](C)(O)[C@H]1CC[C@]2(C)[C@@H]1[C@H](O)C[C@@H]1[C@@]3(C)CC[C@H](O)C(C)(C)[C@@H]3CC[C@]12C`, the IC50 was found to be 46.7 µM in the assay with LoVo; 27.5 µM in assay [1]; 33.3 µM in assay [2]; 44.2 µM in assay [3]; 48.6 µM with HeLa; 49.6 µM in the assay with MCF7.
As to `CC(=O)O[C@H]1CC[C@]2(C)[C@H]3C[C@@H](O)[C@@H]4[C@@H]([C@](C)(O)CCCC(C)(C)O)CC[C@@]4(C)[C@]3(C)CC[C@H]2C1(C)C`, the IC50 in the assay on LoVo worked out at 44.9 µM; in assay [1], 32.6 µM; in assay [2], 20.5 µM; in assay [3], 34.6 µM; in the assay with HeLa it was 30.2 µM; in the assay with MCF7 it was 19.5 µM.
For the molecule `CC(=O)O[C@@H]1C[C@@H]2[C@@]3(C)CC[C@H](O)C(C)(C)[C@@H]3CC[C@@]2(C)[C@]2(C)CC[C@H]([C@](C)(O)CCCC(C)(C)O)[C@@H]12`, the IC50 in the assay on LoVo came out at 36.7 µM; in assay [1], 34.4 µM; in assay [2] it was 18.9 µM; in assay [3] it was 28.7 µM; in the assay with HeLa, 39.9 µM; in the assay with MCF7, 15.6 µM.
As for `CC(=O)O[C@H]1CC[C@]2(C)[C@H]3C[C@@H](OC(C)=O)[C@@H]4[C@@H]([C@](C)(O)CCCC(C)(C)O)CC[C@@]4(C)[C@]3(C)CC[C@H]2C1(C)C`, the IC50 in the assay with LoVo turned out to be 35.6 µM; in assay [1], 41.2 µM; in assay [2], 17.1 µM; in assay [3], 42.3 µM; in the assay on HeLa, 28.9 µM; with MCF7 it was 23.5 µM.
In the case of `C=C(CCCC(C)(C)O)[C@H]1CC[C@]2(C)[C@@H]1[C@H](O)C[C@@H]1[C@@]3(C)CC[C@H](OC(=O)CCl)C(C)(C)[C@@H]3CC[C@]12C`, the IC50 amounted to 19.1 µM in the assay with LoVo; 14.1 µM in assay [1]; 12.1 µM in assay [2]; 44.4 µM in assay [3]; 60.9 µM with HeLa; 18.9 µM with MCF7.
Consider `C=C(CCCC(C)(C)O)[C@H]1CC[C@]2(C)[C@@H]1[C@H](OC(=O)CCl)C[C@@H]1[C@@]3(C)CC[C@H](O)C(C)(C)[C@@H]3CC[C@]12C`, for which the IC50 worked out at 23.5 µM in the assay with LoVo; 24.6 µM in assay [1]; 22.5 µM in assay [2]; 45.2 µM in assay [3]; 56.6 µM in the assay on HeLa; 9.8 µM in the assay with MCF7.
For `C=C(CCCC(C)(C)OC(=O)CCl)[C@H]1CC[C@]2(C)[C@@H]1[C@H](O)C[C@@H]1[C@@]3(C)CC[C@H](O)C(C)(C)[C@@H]3CC[C@]12C`, the IC50 in the assay with LoVo is 40 µM; in assay [1], 10.1 µM; in assay [2], 42.8 µM; in assay [3], 27.1 µM; in the assay with HeLa, 39.7 µM; in the assay with MCF7, 10.8 µM.
Regarding `C=C(CCCC(C)(C)O)[C@H]1CC[C@]2(C)[C@@H]1[C@H](OC(=O)CCl)C[C@@H]1[C@@]3(C)CC[C@H](OC(=O)CCl)C(C)(C)[C@@H]3CC[C@]12C`, the IC50 in the assay with LoVo turned out to be 2.1 µM; in assay [1], 22.8 µM; in assay [2], 1.6 µM; in assay [3] it was 8.3 µM; in the assay with HeLa, 21.7 µM; in the assay on MCF7, 1.7 µM.
Regarding `C/C(=C/CCC(C)(C)O)[C@H]1CC[C@]2(C)[C@@H]1[C@H](OC(=O)CCl)C[C@@H]1[C@@]3(C)CC[C@H](O)C(C)(C)[C@@H]3CC[C@]12C`, the IC50 in the assay with LoVo worked out at 31 µM; in assay [1], 34.6 µM; in assay [2], 8.6 µM; in assay [3] it was 42.3 µM; in the assay on HeLa, 44.4 µM; in the assay with MCF7, 37.8 µM.
For the molecule `C/C(=C/CCC(C)(C)OC(=O)CCl)[C@H]1CC[C@]2(C)[C@@H]1[C@H](O)C[C@@H]1[C@@]3(C)CC[C@H](OC(=O)CCl)C(C)(C)[C@@H]3CC[C@]12C`, the IC50 with LoVo was found to be 1.3 µM; in assay [1], 21.3 µM; in assay [2] it was 1.2 µM; in assay [3], 24.2 µM; in the assay on HeLa it was 23.4 µM; with MCF7 it was 7.9 µM.
For `C/C(=C/CCC(C)(C)O)[C@H]1CC[C@]2(C)[C@@H]1[C@H](OC(=O)CCl)C[C@@H]1[C@@]3(C)CC[C@H](OC(=O)CCl)C(C)(C)[C@@H]3CC[C@]12C`, the IC50 is 1.7 µM in the assay on LoVo; 16.6 µM in assay [1]; 2.6 µM in assay [2]; 7.1 µM in assay [3]; 37.6 µM in the assay on HeLa; 1.6 µM in the assay on MCF7.
Regarding `CC(C)(O)CCC[C@@](C)(O)[C@H]1CC[C@]2(C)[C@@H]1[C@H](O)C[C@@H]1[C@@]3(C)CC[C@H](OC(=O)CCl)C(C)(C)[C@@H]3CC[C@]12C`, the IC50 in the assay with LoVo is 45.8 µM; in assay [1], 31.9 µM; in assay [2], 20.4 µM; in assay [3], 63.6 µM; in the assay with HeLa it was 68.1 µM; in the assay on MCF7, 84.3 µM.
Regarding `CC(C)(O)CCC[C@@](C)(O)[C@H]1CC[C@]2(C)[C@@H]1[C@H](OC(=O)CCl)C[C@@H]1[C@@]3(C)CC[C@H](O)C(C)(C)[C@@H]3CC[C@]12C`, the IC50 with LoVo was found to be 31.1 µM; in assay [1] it was 7.3 µM; in assay [2], 32.1 µM; in assay [3] it was 30.9 µM; in the assay with HeLa, 37.2 µM; in the assay on MCF7, 26.2 µM.
Consider `CC(C)(O)CCC[C@@](C)(O)[C@H]1CC[C@]2(C)[C@@H]1[C@H](OC(=O)CCl)C[C@@H]1[C@@]3(C)CC[C@H](OC(=O)CCl)C(C)(C)[C@@H]3CC[C@]12C`, for which the IC50 was found to be 41 µM in the assay on LoVo; 88.1 µM in assay [1]; 45.6 µM in assay [2]; 61.8 µM in assay [3]; 68.9 µM in the assay on HeLa; 38.1 µM in the assay on MCF7.
For the molecule `CC(C)(CCC[C@@](C)(O)[C@H]1CC[C@]2(C)[C@@H]1[C@H](O)C[C@@H]1[C@@]3(C)CC[C@H](OC(=O)CCl)C(C)(C)[C@@H]3CC[C@]12C)OC(=O)CCl`, the IC50 was found to be 58.1 µM in the assay on LoVo; 40.1 µM in assay [1]; 38.2 µM in assay [2]; 6.9 µM in assay [3]; 27.1 µM in the assay with HeLa; 3.7 µM with MCF7.
With `CC(C)(CCC[C@@](C)(OC(=O)CCl)[C@H]1CC[C@]2(C)[C@@H]1[C@H](O)C[C@@H]1[C@@]3(C)CC[C@H](O)C(C)(C)[C@@H]3CC[C@]12C)OC(=O)CCl`, the IC50 was 61.2 µM in the assay on LoVo; 19.2 µM in assay [1]; 56.1 µM in assay [2]; 32.4 µM in assay [3]; 52.6 µM in the assay on HeLa; 12.1 µM with MCF7.
Take `O=c1[nH]cc(F)c(=O)[nH]1` [FLUOROURACIL]: the half-inhibitory concentration (IC50) is 12.7 µM in the assay with LoVo; 38.2 µM in assay [1]; 36.2 µM in assay [2]; 35.6 µM in assay [3]; 18.1 µM in the assay on HeLa.
